13 molecules from patent publication US20090143279A1 (priority 2007, published 2009) can be followed below.

Test [1] has as its system mitochondrial membrane potential. It is filed as cell-based, mouse.
Test [2] relates to reactive oxygen species. It is filed as cell-based, mouse.
In test [3] the test system is OXPHOS gene expression. The format is cell-based, mouse.
Test [4] relates to nuOXPHOS transcripts. The format is cell-based, mouse.
The subject of test [5] is mtOXPHOS transcripts. The format is cell-based, mouse.
The subject of test [6] is cytochrome c. The format is cell-based, mouse.
In test [7] the test system is C2C12 myotubes.
Test [8] deals with cellular dehydrogenase activity.
[9] abbreviates: composite Z-score vs mock-treated (DMSO) wells, Conc 20 μM.
The mark [10] stands for this setting: normalized composite Z-score vs mock-treated (DMSO) wells, Conc 20 μM.
Where [11] appears, read: composite Z-score vs mock-treated (DMSO) wells, concentration of each compound in μM.
The mark [12] stands for this setting: composite Z-score vs DMSO wells, Conc 20 μM.
The mark [13] stands for this setting: Conc 20 μM, normalized score vs mock-treated (DMSO) wells.
Where [14] appears, read: Table 4, C2C12 myotubes, 48 h, composite Z-score.
Setting [15] is: composite Z-score vs DMSO, Conc 20 μM.
The mark [16] stands for this setting: 20 μM, composite Z-score vs DMSO.

Like-named read-outs stand apart in the source and are kept apart here.

Sequence of cytochrome c (P62897 whole entry): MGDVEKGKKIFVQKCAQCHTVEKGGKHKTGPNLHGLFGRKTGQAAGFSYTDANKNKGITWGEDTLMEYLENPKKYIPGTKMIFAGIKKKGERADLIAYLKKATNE

On to `COc1cc(O)c2c(=O)cc(C)oc2c1CC=C(C)C` [heteropeucenin, methyl ether], for which the ΔΨm in test [1] (setting [9]) came out at 0.886. In test [2] (setting [9]), this molecule showed an ROS of 0.256. In test [3] (setting [9]), this molecule had a GE-HTS of 0.299. Also, the nucOX in test [4] (setting [9]) is 0.328. In test [5] (setting [9]), this molecule gave a mitoOX of 0.217. The cyt c in test [6] (setting [9]) was 0.416. The molecule also had a Viability in test [7] (setting [9]) of −0.034. For the same molecule, in test [8] (setting [9]), the MTT is −1.476.

“2-hydroxy-5 (6)epoxy-tetrahydrocaryophyllene” came in with a ΔΨm in test [1] (setting [10]) of −0.739. Also, the ROS in test [2] (setting [10]) is recorded as 0.074. The GE-HTS in test [3] (setting [10]) was −0.347. For the same molecule, the nucOX in test [4] (setting [10]) is reported as −0.447. In addition, the mitoOX in test [5] (setting [10]) is −0.043. In test [6] (setting [10]), the cyt c amounted to 0.236. Moreover, the Viability in test [7] (setting [10]) is on record as −0.772. Further, the MTT in test [8] (setting [10]) is listed as −0.836.

In the case of `C[C@@H]1[C@H](O)[C@@H](C)/C=C/C=C/CC/C=C/C=C/C=C/C=C/C(O[C@H]2O[C@H](C)[C@@H](O)[C@H](N)[C@@H]2O)CC2O[C@](O)(CC(O)C(O)CCC(O)CC(O)CC(O)CC(=O)O[C@H]1C)CC(O)C2C(=O)O` (stereo partly shown) [nystatine], in test [1] (setting [11]), the ΔΨm is listed as −0.660. Further, the ROS in test [2] (setting [11]) worked out at 0.765. This molecule also gave a GE-HTS in test [3] (setting [11]) of −0.436. The same molecule yielded a nucOX in test [4] (setting [11]) of −0.272. In test [5] (setting [11]), this molecule showed a mitoOX of −0.683. The molecule also came in with a cyt c in test [6] (setting [11]) of 0.061. The molecule further had a Viability in test [7] (setting [11]) of −0.430. Moreover, the MTT in test [8] (setting [11]) is listed as −1.147.

`C[C@]12CC[C@H]3[C@@H](CC[C@]4(O)C[C@@H](O)CC[C@]34C=O)[C@@]1(O)CC[C@@H]2C1=CC(=O)OC1` [strophanthidin]: the ΔΨm was −0.175 in test [1], −1.126 in test [1] (setting [12]) and −0.481 in test [1] (setting [10]). The ROS in test [2] is 0.947; in test [2] (setting [12]), 1.582; in test [2] (setting [10]), 1.036. The GE-HTS in test [3] is reported as −0.590; in test [3] (setting [12]), −0.232; in test [3] (setting [10]), −0.789. In addition, the nucOX is on record as −0.729 in test [4], −0.222 in test [4] (setting [12]) and −0.525 in test [4] (setting [10]). Also, the mitoOX in test [5] was −0.190; in test [5] (setting [12]), −0.231; in test [5] (setting [10]) it was −1.094. Also, the cyt c in test [6] worked out at 0.287; in test [6] (setting [12]) it was 1.100; in test [6] (setting [10]) it was 0.687. Also, the Viability in test [7] is −0.448; in test [7] (setting [12]) it was 0.028; in test [7] (setting [10]), −1.016. Moreover, the MTT in test [8] was −0.908; in test [8] (setting [12]) it was −0.828; in test [8] (setting [10]), −1.573.

With `CCC(C)C(OC(C)=O)C(=O)O[C@H]1[C@H](O)[C@@H]2[C@@]3(C)C=CC(=O)C(C)(C)[C@@H]3C[C@@H](OC(=O)C(O)C(C)C)[C@@]2(C)[C@@]23O[C@@H]2C[C@@H](c2ccoc2)[C@]13C` (stereo partly shown) [heudelottin C, reference compound], the “ΔΨm (composite Z-score)” value in test [1] (setting [13]) stood at 0.373. Also, the ΔΨm in test [1] (Table 4, C2C12 myotubes, 48 h, JC-1, composite Z-score) came to 0.373. Further, the “ROS (composite Z-score)” value in test [2] (setting [13]) worked out at 0.576. Also, the ROS in test [2] (setting [14]) turned out to be 0.576. Also, the “GE-HTS (composite Z-score)” value in test [3] (setting [13]) is on record as −0.524. The “nucOX (composite Z-score)” value in test [4] (setting [13]) is recorded as −0.245. Moreover, in test [5] (setting [13]), the “mitoOX (composite Z-score)” value is −1.006. Moreover, in test [6] (setting [13]), the “cyt c (composite Z-score)” value amounted to 0.156. Besides, the “Viability (composite Z-score)” value in test [7] (setting [13]) is −0.829. In test [7] (setting [14]), this molecule displayed a Viability of −0.829. In addition, the “MTT (composite Z-score)” value in test [8] (setting [13]) was −0.393. In test [8] (setting [14]), this molecule gave an MTT of −0.393.

As to `COC(=O)[C@@H]1OC(=O)C2OC23[C@@]1(C)CCC1[C@@]2(C)CCC(=O)C(C)(C)C2C[C@@H](OC(C)=O)[C@]13C` (stereo partly shown) [dihydrogedunic acid, methyl ester], the ΔΨm in test [1] (setting [9]) is listed as −0.320. For the same molecule, in test [2] (setting [9]), the ROS came out at 0.411. In test [3] (setting [9]), this molecule returned a GE-HTS of 0.244. The molecule further registered a nucOX in test [4] (setting [9]) of 0.141. The molecule also returned a mitoOX in test [5] (setting [9]) of 0.438. The cyt c in test [6] (setting [9]) is −0.443. In test [7] (setting [9]), this molecule had a Viability of 0.103. Moreover, the MTT in test [8] (setting [9]) is reported as −1.062.

`COc1ccc(-c2coc3cc(O)ccc3c2=O)c(OC)c1O` [koparin 2′-methyl ether] showed a ΔΨm in test [1] (setting [15]) of −0.442. This molecule had an ROS in test [2] (setting [15]) of 0.126. In test [3] (setting [15]), this molecule displayed a GE-HTS of −1.151. The molecule also came in with a nucOX in test [4] (setting [15]) of −1.461. This molecule had a mitoOX in test [5] (setting [15]) of −0.309. Also, in test [6] (setting [15]), the cyt c was found to be 0.007. The molecule also had a Viability in test [7] (setting [15]) of 0.024. Moreover, in test [8] (setting [15]), the MTT is −0.532.

With `CC(=O)OCC[N+](C)(C)C` [acetylcholine], the ΔΨm in test [1] (setting [16]) is recorded as −0.520. In test [2] (setting [16]), this molecule yielded an ROS of 0.622. Besides, the GE-HTS in test [3] (setting [16]) was 0.358. In test [4] (setting [16]), the nucOX came to 0.533. This molecule displayed a mitoOX in test [5] (setting [16]) of 0.014. Further, the cyt c in test [6] (setting [16]) is given as −0.038. Further, the Viability in test [7] (setting [16]) is listed as −0.299. This molecule also had an MTT in test [8] (setting [16]) of −0.712.

On to `CC1(C)S[C@@H]2[C@H](N3C(=O)[C@@H](c4ccccc4)NC3(C)C)C(=O)N2[C@H]1C(=O)O` [hetacillin], for which the ΔΨm in test [1] (setting [15]) was −0.787. For the same molecule, the ROS in test [2] (setting [15]) is recorded as 1.132. This molecule showed a GE-HTS in test [3] (setting [15]) of −0.200. This molecule also registered a nucOX in test [4] (setting [15]) of −0.094. In test [5] (setting [15]), the mitoOX was −0.302. The cyt c in test [6] (setting [15]) was determined as 0.731. Besides, the Viability in test [7] (setting [15]) is recorded as −0.642. In addition, in test [8] (setting [15]), the MTT is on record as −0.663.

In turn, `CC1(C)O[C@@H]2C[C@H]3[C@@H]4CCC5=CC(=O)CC[C@]5(C)[C@@]4(F)[C@@H](O)C[C@]3(C)[C@]2(C(=O)CCl)O1` [halcinonide] displayed a ΔΨm in test [1] (setting [15]) of 0.570. Besides, in test [2] (setting [15]), the ROS is recorded as 0.624. In addition, the GE-HTS in test [3] (setting [15]) turned out to be 0.492. Further, the nucOX in test [4] (setting [15]) is 0.284. For the same molecule, the mitoOX in test [5] (setting [15]) is given as 0.831. For the same molecule, the cyt c in test [6] (setting [15]) is listed as −0.794. This molecule gave a Viability in test [7] (setting [15]) of 0.106. The same molecule returned an MTT in test [8] (setting [15]) of −0.789.

On to `CC(=O)OC1CCC23CC1(C)CCC2C(C)(C)CC3OC(C)=O` (stereo not shown) [clovanediol diacetate], for which the ΔΨm in test [1] (setting [10]) was −0.599. In test [2] (setting [10]), this molecule had an ROS of −0.318. This molecule also gave a GE-HTS in test [3] (setting [10]) of −0.020. Besides, the nucOX in test [4] (setting [10]) is on record as 0.007. Besides, the mitoOX in test [5] (setting [10]) is −0.026. In test [6] (setting [10]), this molecule registered a cyt c of 0.384. The Viability in test [7] (setting [10]) was −0.119. In test [8] (setting [10]), this molecule gave an MTT of −0.708.

In test [1] (setting [15]), `CO/N=C(\C(=O)N[C@@H]1C(=O)N2C(C(=O)O)=C(COC(C)=O)CS[C@H]12)c1csc(N)n1` [cefotaxime] yielded a ΔΨm of −0.276. The molecule also displayed an ROS in test [2] (setting [15]) of 1.000. In addition, in test [3] (setting [15]), the GE-HTS is given as −0.379. Also, the nucOX in test [4] (setting [15]) is −0.450. Moreover, the mitoOX in test [5] (setting [15]) is given as −0.214. In test [6] (setting [15]), this molecule had a cyt c of 0.366. In test [7] (setting [15]), the Viability is on record as −1.283. This molecule showed an MTT in test [8] (setting [15]) of −2.276.

With `NC[C@@H]1O[C@H](O[C@H]2[C@@H](O)[C@H](O[C@@H]3[C@@H](O)[C@H](N)C[C@H](N)[C@H]3O[C@H]3O[C@H](CN)[C@@H](O)[C@H](O)[C@H]3N)O[C@@H]2CO)[C@H](N)[C@@H](O)[C@@H]1O` [neomycin], in test [1] (setting [15]), the ΔΨm is −0.599. For the same molecule, the ROS in test [2] (setting [15]) is recorded as 1.203. In test [3] (setting [15]), the GE-HTS came out at 0.817. Further, the nucOX in test [4] (setting [15]) stood at 0.598. In addition, the mitoOX in test [5] (setting [15]) came to 1.160. For the same molecule, the cyt c in test [6] (setting [15]) came out at 0.734. Moreover, the Viability in test [7] (setting [15]) is reported as −1.255. In test [8] (setting [15]), this molecule gave an MTT of −1.478.
